The text below walks through data of patent US12110293B2, “Substituted triazolo quinoxaline derivatives” (GRÜNENTHAL GMBH, priority 2018, dated 2024).

In this experiment the target is T1, glucocorticoid receptor (Homo sapiens, UniProt P04150).
T1 construct: expressed in transfected cells
T1 sequence (P04150 524-758 limits assumed): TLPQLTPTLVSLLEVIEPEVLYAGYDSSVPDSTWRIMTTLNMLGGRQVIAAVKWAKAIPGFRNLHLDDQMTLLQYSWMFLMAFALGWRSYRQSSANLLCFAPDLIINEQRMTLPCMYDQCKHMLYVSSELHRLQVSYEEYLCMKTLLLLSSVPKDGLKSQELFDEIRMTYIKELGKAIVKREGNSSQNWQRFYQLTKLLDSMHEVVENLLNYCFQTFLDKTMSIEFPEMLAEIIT
The experiment in a line: Agonistic mode of action on the glucocorticoid receptor (CHO-Gal4/GR luciferase reporter cell line). The experiment is classed as cell-based. Conditions: range class observed in the agonistic assay or the antagonistic assay (CHO-Gal4/GR reporter cells); table does not say which mode applies per example. The text has this:
Potential selective glucocorticoid receptor modulators of this intervention can be tested for modulation of the activity of the glucocorticoid receptor using cell-based assays. These assays involve a Chinese hamster ovary (CHO) cell line which contains fragments of the glucocorticoid receptor as well as fusion proteins. The glucocorticoid receptor fragments used are capable of binding the ligand (e.g. beclomethasone) to identify molecules that compete for binding with glucocorticoid receptor ligands. In more detail, the glucocorticoid receptor ligand binding domain is 25 fused to the DNA binding domain (DBD) of the transcriptionfactor GAL4 (GAL4 DBD-GR) and is stably integrated into a CHO cell line containing a GAL4-UAS-Luciferase reporter construct. […] After cell lysis the luminescence that is produced by luciferase after addition of the substrate is detected and EC50 or IC50 values can be calculated. Engagement of molecules which induce gene expression via glucocortocoid receptor binding to the DNA leads to expression of the luciferase gene under the control of the fusion protein GAL4 DBD-GR and therefore to a dose-dependent increase of the luminescence signal. Binding of molecules which repress beclomethasone-induced gene expression of the luciferase gene under the control of the fusion protein GAL4 DBD-GR leads to a dose-dependent reduction of the luminescence signal.
Biological Assays Agonistic Mode of Action on the Glucocorticoid Receptor
The reporter cell line CHO-Gal4/GR consisted of a Chinese hamster ovary (CHO) cell line (Leibniz Institute DSMZ—German Collection of Microorganisms and Cell CuItures GmbH: ACC-110) containing a firefly luciferase gene under the control of the GR ligand binding domain fused to the DNA binding domain (DBD) of GAL4 (GAL4 DBD-GR) stably integrated into CHO cells. This cell line was established by stable transfection of CHO cells with a GAL4-UAS-Luciferase reporter construct. In a subsequent step the ligand binding domain of the GR cloned into pIRES2-EGFP-GAL4 containing the DNA binding domain of GAL4 from pFA-AT2 was transfected. This fusion construct activated firefly luciferase expression under the control of a multimerized GAL4 upstream activation sequence (UAS). The signal of the emitted luminescence was recorded by the FLIPR^TETRA. This allowed for specific detection of ligand-induced activation of the GR and therefore for the identification of compounds with agonistic properties. The GAL4/UAS reporter was premixed with a vector that constitutively expressed Renilla luciferase, which served as an internal positive control for transfection efficiency.
The complete culture medium for the assay was: • DMEM F-12 (1:1) MIXTURE (LONZA cat. N°: BE04-687F/U1) 500 mL • 5 mL of 100 mM Sodium Pyruvate (LONZA cat. N°: BE12-115E) • 25 mL of 7.5% Sodium Bicarbonate (LONZA cat. N° BE17-613E) • 6.5 mL of 1 M Hepes (LONZA cat. N°: BE17-737E) • 5 mL of 100× Penicillin/Streptomycin (LONZA cat. N° DE17-602E) • 50 mL of Fetal Bovine Serum (Euroclone cat. N° ECS 0180L) • 0.25 mL of 10 mg/mL Puromycin (InvivoGen cat.: ant-pr-1) • 0.5 mL of 100 mg/mL Zeocin (InvivoGen cat.: ant-zn-1)
Cryo-preserved CHO-Gal4/GR cells were suspended in complete medium and 5000 cells/25 μl/well were seeded into the wells of 384-well polystyrene assay plates (Thermo Scientific, cat. #4332) and cultured at 37° C., 5% CO2 and 95% humidity. After 24 hours growth medium was carefully removed and replaced by 30 μl Opti-MEM (GIBCO, cat. #31985062) as assay buffer. To test the compounds an 8-point half-log compound dilution curve was generated in 100% DMSO starting from a 2 mM stock and compounds were then diluted 1:50 in Opti-MEM. 10 μl of compounds were then added to the wells containing 30 μl Opti-MEM resulting in a final assay concentration range from 10 μM to 0.003 μM in 0.5% DMSO. Compounds were tested at 8 concentrations in quadruplicate data points.
On the technique in general: Reporter assays use an easily measured gene product as a stand-in for the process of interest.

As for `Cc1c[nH]c2c(-c3c(F)cc4c(c3F)-n3c(Cc5ccccn5)nnc3C(C)(C)N4)cc(F)cc12` [Example 74, 7,9-Difluoro-8-(5-fluoro-3-methyl-1H-indol-7-yl)-4,4-dimethyl-1-(pyridin-2-yl-methyl)-5H-[1,2,4]triazolo[4,3-a]quinoxaline], the IC50 or EC50 (agonist or antagonist mode not specified) was under 0.1 µM.

Turning to `COc1c(-c2cccc3c2cnn3C)c(F)cc2c1-n1c(C)nnc1C(C)(C)N2` [Example 264, 7-Fluoro-9-methoxy-1,4,4-trimethyl-8-(1-methyl-1H-indazol-4-yl)-5H-[1,2,4]triazolo[4,3-a]quinoxaline], the IC50 or EC50 (agonist or antagonist mode not specified) is 0.1 to 1 µM.

In turn, `CCn1ncc2c(-c3c(F)cc4c(c3F)-n3c(C)nnc3C(C)(C)N4)cccc21` [Example 236, 8-(1-Ethyl-1H-indazol-4-yl)-7,9-difluoro-1,4,4-trimethyl-5H-[1,2,4]triazolo[4,3-a]quinoxaline] gave an IC50 or EC50 (agonist or antagonist mode not specified) of 0.1 to 1 µM.

`Cc1c(-c2cc(F)cc3c2cnn3S(C)(=O)=O)c(Cl)cc2c1-n1c(C)nnc1C(C)(C)N2` [Example 347, 7-Chloro-8-(6-fluoro-1-methylsulfonyl-1H-indazol-4-yl)-1,4,4,9-tetramethyl-5H-[1,2,4]triazolo[4,3-a]quinoxaline] had an IC50 or EC50 (agonist or antagonist mode not specified) of 0.1 to 1 µM.

On to `Cc1c(-c2cc(F)cc3c(C)c[nH]c23)ccc2c1-n1c(C)nnc1C(C)(C)N2` [Example 452, 8-(5-Fluoro-3-methyl-1H-indol-7-yl)-1,4,4,9-tetramethyl-5H-[1,2,4]triazolo[4,3-a]quinoxaline], for which the IC50 or EC50 (agonist or antagonist mode not specified) is under 0.1 µM.

In turn, `Cc1nnc2n1-c1c(cc(F)c(-c3cccc4[nH]ncc34)c1F)NC2(C)C` [Example 232, 7,9-Difluoro-8-(1H-indazol-4-yl)-1,4,4-trimethyl-5H-[1,2,4]triazolo[4,3-a]quinoxaline] came in with an IC50 or EC50 (agonist or antagonist mode not specified) of 0.1 to 1 µM.

Turning to `Cc1nnc2n1-c1c(cc(F)c(-c3cccc4c3ccn4CC(F)F)c1F)NC2(C)C` [Example 253, 8-[1-(2,2-Difluoro-ethyl)-1H-indol-4-yl]-7,9-difluoro-1,4,4-trimethyl-5H-[1,2,4]triazolo[4,3-a]quinoxaline], the IC50 or EC50 (agonist or antagonist mode not specified) lay within 0.1 to 1 µM.

Regarding `CC#Cc1c[nH]c2c(-c3c(F)cc4c(c3C)-n3c(C(C)O)nnc3C(C)(C)N4)cc(F)cc12` (stereo not shown) [Example 78], the IC50 or EC50 (agonist or antagonist mode not specified) lay within 1 to 15 µM.

For the compound `Cc1nnc2n1-c1c(cc(F)c(-c3ccc(Cl)c4[nH]ccc34)c1C(F)(F)F)NC2(C)C` [Example 530, 8-(7-Chloro-1H-indol-4-yl)-7-fluoro-1,4,4-trimethyl-9-(trifluoromethyl)-5H-[1,2,4] triazolo[4,3-a]quinoxaline], the IC50 or EC50 (agonist or antagonist mode not specified) is 0.1 to 1 µM.

As to `Cc1cc2c(c(C)c1-c1cccc3c1ccn3S(C)(=O)=O)-n1c(C)nnc1C(C)(C)N2` [Example 309, 1,4,4,7,9-Pentamethyl-8-(1-methylsulfonyl-1H-indol-4-yl)-5H-[1,2,4]triazolo[4,3-a]quinoxaline], the IC50 or EC50 (agonist or antagonist mode not specified) was under 0.1 µM.

Take `COCCn1ncc2c(-c3c(F)cc4c(c3F)-n3c(C)nnc3C(C)(C)N4)cccc21` [Example 233, 7,9-Difluoro-8-[1-(2-methoxy-ethyl)-1H-indazol-4-yl]-1,4,4-trimethyl-5H-[1,2,4]triazolo[4,3-a]quinoxaline]: the IC50 or EC50 (agonist or antagonist mode not specified) lay in the range of 0.1 to 1 µM.

Take `Cc1c(-c2cccc3c(C4CCOC4)c[nH]c23)c(F)cc2c1-n1c(C)nnc1C(C)(C)N2` (stereo not shown) [Example 42, 7-fluoro-1,4,4,9-tetramethyl-8-(3-(tetrahydrofuran-3-yl)-1H-indol-7-yl)-4,5-dihydro-[1,2,4]triazolo[4,3-a]quinoxaline]: the IC50 or EC50 (agonist or antagonist mode not specified) is under 0.1 µM.

For `COc1c(-c2cccc3c2ccn3CC(F)F)c(F)cc2c1-n1c(C)nnc1C(C)(C)N2` [Example 397, 8-[1-(2,2-Difluoro-ethyl)-1H-indol-4-yl]-7-fluoro-9-methoxy-1,4,4-trimethyl-5H-[1,2,4]triazolo[4,3-a]quinoxaline], the IC50 or EC50 (agonist or antagonist mode not specified) lay within 0.1 to 1 µM.
